Source: patent publication US10765115B2 (priority 2015, dated 2020)

How the values were obtained:
[1] = type: physicochemical; settings: pH 7
legionella bacteria = type: cell-based; settings: initial 10^7 CFU/100 mL, after 24 hours, 36° C., pH 7.0

Row | SMILES | Residual concentration Cl2 (monochlorosulfamic acid as Cl2) [1] [mg/L] | Residual concentration Cl-MIT [1] [µg/L] | Sterilizing rate (legionella bacteria) [%]
1 | Cn1sc(Cl)cc1=O [Sample 11, 5-chloro-2-methyl-4-isothiazoline-3-one] | 0 | 2.1 | 100
2 | Cn1sc(Cl)cc1=O [Sample 17, 5-chloro-2-methyl-4-isothiazoline-3-one] | 0 | 600.0 | 
3 | Cn1sc(Cl)cc1=O [Sample 19, 5-chloro-2-methyl-4-isothiazoline-3-one] | 0 | 1500.0 | 
